One assay relates to A549 cancer cells. Briefly: Senescence induction (SA-β-Gal activity, morphology) of bleomycin-treated cells. In kind it is cell-based. Particulars: 50 ug/ml for 72 hours; stained 7 days post-treatment. Here is the method:
(§1) FIG. 1: Senescence-associated beta-galactosidase (SA-β-Gal) activity of bleomycin-treated cells. A549 cancer cells (panel A) and primary human WI-38 fibroblasts (panel B) were treated for 72 hours with 50 ug/ml or 15 ug/ml of bleomycin, respectively. Cells were fixed and stained 7 days post-bleomycin treatment. Non-treated cultures, confluent at the time of staining, were used as controls.

For assay [1], the system named is primary human WI-38 fibroblasts. Described as above. In kind it is cell-based. To be noted: 15 ug/ml for 72 hours; stained 7 days post-treatment. On the procedure:
as §1

Drawing on patent US20160213714A1, “INDUCTION OF CELLULAR SENESCENCE FOR TISSUE THERAPIES” (Everon Biosciences, Inc., priority 2015, published 2016), this text covers cellular morphology for one substance.

Take bleomycin: the cellular morphology result (in the assay with A549 cancer cells; in assay [1]) was “Enlarged cellular morphology” throughout.
